Assay results reported in ChEMBL document CHEMBL1134138, “Phytoestrogens from the roots of Polygonum cuspidatum (Polygonaceae): structure-requirement of hydroxyanthraquinones for estrogenic activity” (Bioorg Med Chem Lett, 2001).
pIC50, pKi: −log10 of the molar value.

Tests used:
Estrogen receptor beta [1] = molecular target: T1, Estrogen receptor beta (Homo sapiens, UniProt Q92731)
Description: (§1) Inhibition of binding of 17 beta-estradiol to human Estrogen receptor beta

Estrogen receptor beta [2] = molecular target: T1, Estrogen receptor beta; remark: listed apart in the source
Description: as §1

Estrogen receptor [3] = molecular target: T2, Estrogen receptor (Homo sapiens, UniProt P03372)
T2 sequence (P03372 whole entry): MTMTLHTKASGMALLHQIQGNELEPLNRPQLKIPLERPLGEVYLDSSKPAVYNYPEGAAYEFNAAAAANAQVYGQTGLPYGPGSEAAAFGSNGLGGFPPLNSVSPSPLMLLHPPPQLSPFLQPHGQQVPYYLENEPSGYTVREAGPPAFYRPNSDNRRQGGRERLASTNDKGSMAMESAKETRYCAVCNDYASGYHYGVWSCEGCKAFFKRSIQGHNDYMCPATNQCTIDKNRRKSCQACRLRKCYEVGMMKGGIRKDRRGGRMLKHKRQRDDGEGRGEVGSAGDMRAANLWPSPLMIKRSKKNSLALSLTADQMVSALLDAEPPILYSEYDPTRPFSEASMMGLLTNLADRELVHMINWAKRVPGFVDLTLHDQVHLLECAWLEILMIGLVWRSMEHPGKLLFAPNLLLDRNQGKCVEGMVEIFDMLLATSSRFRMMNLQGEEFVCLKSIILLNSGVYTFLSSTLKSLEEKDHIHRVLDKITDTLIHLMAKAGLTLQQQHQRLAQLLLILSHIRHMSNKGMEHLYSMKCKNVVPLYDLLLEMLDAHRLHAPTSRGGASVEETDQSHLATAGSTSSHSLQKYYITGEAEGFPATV
Description: (§2) Inhibition of binding of 17 beta-estradiol to human Estrogen receptor alpha

Estrogen receptor [4] = molecular target: T2, Estrogen receptor; remark: listed apart in the source
Description: as §2

T1 sequence (Q92731 whole entry): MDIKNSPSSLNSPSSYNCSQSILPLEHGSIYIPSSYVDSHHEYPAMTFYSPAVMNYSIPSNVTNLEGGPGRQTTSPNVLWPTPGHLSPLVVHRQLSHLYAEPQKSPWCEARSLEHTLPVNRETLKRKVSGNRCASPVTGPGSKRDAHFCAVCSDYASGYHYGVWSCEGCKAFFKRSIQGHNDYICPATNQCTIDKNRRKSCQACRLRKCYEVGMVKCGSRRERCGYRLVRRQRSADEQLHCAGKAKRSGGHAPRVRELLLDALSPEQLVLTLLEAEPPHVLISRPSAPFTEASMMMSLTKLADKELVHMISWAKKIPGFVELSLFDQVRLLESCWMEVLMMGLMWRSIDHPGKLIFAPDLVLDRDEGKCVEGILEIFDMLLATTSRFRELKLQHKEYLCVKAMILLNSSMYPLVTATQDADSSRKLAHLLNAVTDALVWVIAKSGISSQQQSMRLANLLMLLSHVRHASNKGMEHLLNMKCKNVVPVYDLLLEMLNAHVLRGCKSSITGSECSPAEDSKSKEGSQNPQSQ

Structure (SMILES): Cc1cc(O)c2c(c1)C(=O)c1cc(O)cc(O[C@@H]3O[C@H](CO)[C@@H](O)[C@H](O)[C@H]3O)c1C2=O [EMODIN 8-O-BETA-D-GLUCOPYRANOSIDE]
- pIC50 (Estrogen receptor beta [1]): 4.21
- pKi (Estrogen receptor beta [2]): 4.74
- pIC50 (Estrogen receptor [3]): 4.70
- pKi (Estrogen receptor [4]): 5.24

Structure (SMILES): O=C1c2ccc(O)cc2C(=O)c2ccc(O)cc21
- pIC50 (Estrogen receptor beta [1]): 5.62
- pKi (Estrogen receptor beta [2]): 6.16
- pIC50 (Estrogen receptor [3]): 5.96
- pKi (Estrogen receptor [4]): 6.51

Structure (SMILES): Cc1cc(O)c2c(c1)C(=O)c1cc(O)cc(O)c1C2=O [EMODIN]
- pIC50 (Estrogen receptor beta [1]): 5.28
- pKi (Estrogen receptor beta [2]): 5.82
